Measured values: PubChem BioAssay (NCI)
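Following 48 hours of exposure in 96-well plates, responses at five concentrations were used to interpolate endpoints linearly. GI50 = concentration required for 50% inhibition of growth. TGI is the concentration that stops growth completely.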

Legend:
Test in all cases: NCI tumour cell line growth inhibition, 48 h
OVCAR-4 ovarian = tested on: OVCAR-4 ovarian
SK-MEL-28 melanoma = tested on: SK-MEL-28 melanoma
CCRF-CEM leukemia = tested on: CCRF-CEM leukemia
ACHN renal = tested on: ACHN renal
SN12C renal = tested on: SN12C renal
OVCAR-8 ovarian = tested on: OVCAR-8 ovarian
HL-60(TB) leukemia = tested on: HL-60(TB) leukemia
SNB-19 CNS = tested on: SNB-19 CNS
U251 CNS = tested on: U251 CNS
A498 renal = tested on: A498 renal
IGROV1 ovarian = tested on: IGROV1 ovarian
RPMI-8226 leukemia = tested on: RPMI-8226 leukemia
HCT-15 colon = tested on: HCT-15 colon
UO-31 renal = tested on: UO-31 renal
CAKI-1 renal = tested on: CAKI-1 renal
DU-145 prostate = tested on: DU-145 prostate
RXF 393 renal = tested on: RXF 393 renal
MOLT-4 leukemia = tested on: MOLT-4 leukemia
PC-3 prostate = tested on: PC-3 prostate
MCF7 breast = tested on: MCF7 breast
MALME-3M melanoma = tested on: MALME-3M melanoma
KM12 colon = tested on: KM12 colon
HCC-2998 colon = tested on: HCC-2998 colon
SF-268 CNS = tested on: SF-268 CNS
COLO 205 colon = tested on: COLO 205 colon
NCI-H226 lung = tested on: NCI-H226 lung
SW-620 colon = tested on: SW-620 colon
HCT-116 colon = tested on: HCT-116 colon
NCI-H522 lung = tested on: NCI-H522 lung
HS 578T breast = tested on: HS 578T breast
HOP-92 NSCLC = tested on: HOP-92 NSCLC
EKVX NSCLC = tested on: EKVX NSCLC
SK-MEL-5 melanoma = tested on: SK-MEL-5 melanoma
786-0 renal = tested on: 786-0 renal
UACC-62 melanoma = tested on: UACC-62 melanoma
OVCAR-3 ovarian = tested on: OVCAR-3 ovarian
M14 melanoma = tested on: M14 melanoma
SF-539 CNS = tested on: SF-539 CNS
NCI/ADR-RES ovarian = tested on: NCI/ADR-RES ovarian
UACC-257 melanoma = tested on: UACC-257 melanoma
MDA-MB-231 breast = tested on: MDA-MB-231 breast
OVCAR-5 ovarian = tested on: OVCAR-5 ovarian
HT29 colon = tested on: HT29 colon
NCI-H460 lung = tested on: NCI-H460 lung
SK-OV-3 ovarian = tested on: SK-OV-3 ovarian
A549 NSCLC = tested on: A549 NSCLC
SK-MEL-2 melanoma = tested on: SK-MEL-2 melanoma
SF-295 CNS = tested on: SF-295 CNS
MDA-MB-435 = tested on: MDA-MB-435
HOP-62 NSCLC = tested on: HOP-62 NSCLC
T-47D breast = tested on: T-47D breast
SNB-75 CNS = tested on: SNB-75 CNS
NCI-H23 lung = tested on: NCI-H23 lung
K-562 leukemia = tested on: K-562 leukemia
LOX IMVI melanoma = tested on: LOX IMVI melanoma
TK-10 renal = tested on: TK-10 renal

`CCCOC(=O)CCn1c(SC)nc2[nH]cc(-c3ccccc3)c2c1=O` showed a GI50 (OVCAR-4 ovarian) of 29.2 µM, a TGI (OVCAR-4 ovarian) of 95.8 µM and a GI50 (SK-MEL-28 melanoma) of 20.3 µM. For the same compound, the TGI (SK-MEL-28 melanoma) was 58.8 µM, the GI50 (CCRF-CEM leukemia) was 1370 nM and the TGI (CCRF-CEM leukemia) was 35.1 µM. It also gave a GI50 (ACHN renal) of 22.2 µM, a TGI (ACHN renal) of 77.2 µM and a GI50 (SN12C renal) of 20.1 µM. The TGI (SN12C renal) was greater than 100 µM, the GI50 (OVCAR-8 ovarian) was 20.5 µM and the TGI (OVCAR-8 ovarian) was greater than 100 µM. It also gave a GI50 (HL-60(TB) leukemia) of 1770 nM, a TGI (HL-60(TB) leukemia) of 23.2 µM and a GI50 (SNB-19 CNS) of 31.7 µM. For the same compound, the TGI (SNB-19 CNS) was greater than 100 µM, the GI50 (U251 CNS) was 12.8 µM and the TGI (U251 CNS) was 87.4 µM. For the same compound, the GI50 (A498 renal) was 27.9 µM, the TGI (A498 renal) was 87.9 µM and the GI50 (IGROV1 ovarian) was 13.5 µM. The TGI (IGROV1 ovarian) was 49.6 µM, the GI50 (RPMI-8226 leukemia) was 12.7 µM and the TGI (RPMI-8226 leukemia) was 33.6 µM. For the same compound, the GI50 (HCT-15 colon) was 37.7 µM, the TGI (HCT-15 colon) was greater than 100 µM and the GI50 (UO-31 renal) was 23.9 µM. It also gave a TGI (UO-31 renal) of 75.5 µM, a GI50 (CAKI-1 renal) of 19.6 µM and a TGI (CAKI-1 renal) of 54 µM. For the same compound, the GI50 (DU-145 prostate) was 27.8 µM, the TGI (DU-145 prostate) was greater than 100 µM and the GI50 (RXF 393 renal) was 19.1 µM. The TGI (RXF 393 renal) was 54.8 µM, the GI50 (MOLT-4 leukemia) was 1160 nM and the TGI (MOLT-4 leukemia) was 15.1 µM. The GI50 (PC-3 prostate) was 14.6 µM, the TGI (PC-3 prostate) was 50.1 µM and the GI50 (MCF7 breast) was 19.7 µM. For the same compound, the TGI (MCF7 breast) was greater than 100 µM, the GI50 (MALME-3M melanoma) was 18.5 µM and the TGI (MALME-3M melanoma) was 51.8 µM. The GI50 (KM12 colon) was 18.7 µM, the TGI (KM12 colon) was 53.8 µM and the GI50 (HCC-2998 colon) was 73.5 µM. The TGI (HCC-2998 colon) was greater than 100 µM, the GI50 (SF-268 CNS) was 14.5 µM and the TGI (SF-268 CNS) was greater than 100 µM. For the same compound, the GI50 (COLO 205 colon) was 19.1 µM, the TGI (COLO 205 colon) was 46.5 µM and the GI50 (NCI-H226 lung) was 18.9 µM. The TGI (NCI-H226 lung) was 61.2 µM, the GI50 (SW-620 colon) was 28.3 µM and the TGI (SW-620 colon) was greater than 100 µM. It also gave a GI50 (HCT-116 colon) of 15.4 µM, a TGI (HCT-116 colon) of 41 µM and a GI50 (NCI-H522 lung) of 11 µM. The TGI (NCI-H522 lung) was 32.5 µM, the GI50 (HS 578T breast) was 28.1 µM and the TGI (HS 578T breast) was greater than 100 µM. The GI50 (HOP-92 NSCLC) was 3.64 µM, the TGI (HOP-92 NSCLC) was 40.4 µM and the GI50 (EKVX NSCLC) was 33.9 µM. For the same compound, the TGI (EKVX NSCLC) was greater than 100 µM, the GI50 (SK-MEL-5 melanoma) was 15.9 µM and the TGI (SK-MEL-5 melanoma) was 35.1 µM. For the same compound, the GI50 (786-0 renal) was 2710 nM, the TGI (786-0 renal) was greater than 100 µM and the GI50 (UACC-62 melanoma) was 11.7 µM. The TGI (UACC-62 melanoma) was 26.5 µM, the GI50 (OVCAR-3 ovarian) was 19.9 µM and the TGI (OVCAR-3 ovarian) was 54.1 µM. It also gave a GI50 (M14 melanoma) of 15.6 µM, a TGI (M14 melanoma) greater than 100 µM and a GI50 (SF-539 CNS) of 24.9 µM. It also gave a TGI (SF-539 CNS) greater than 100 µM, a GI50 (NCI/ADR-RES ovarian) of 25.4 µM and a TGI (NCI/ADR-RES ovarian) greater than 100 µM. The GI50 (UACC-257 melanoma) was 33.8 µM, the TGI (UACC-257 melanoma) was greater than 100 µM and the GI50 (MDA-MB-231 breast) was 38.3 µM. For the same compound, the TGI (MDA-MB-231 breast) was greater than 100 µM, the GI50 (OVCAR-5 ovarian) was greater than 100 µM and the TGI (OVCAR-5 ovarian) was greater than 100 µM. The GI50 (HT29 colon) was 15.5 µM, the TGI (HT29 colon) was 61.6 µM and the GI50 (NCI-H460 lung) was 13.4 µM. For the same compound, the TGI (NCI-H460 lung) was greater than 100 µM, the GI50 (SK-OV-3 ovarian) was 38.3 µM and the TGI (SK-OV-3 ovarian) was greater than 100 µM. It also gave a GI50 (A549 NSCLC) of 15.8 µM, a TGI (A549 NSCLC) of 65.8 µM and a GI50 (SK-MEL-2 melanoma) of 25.5 µM. For the same compound, the TGI (SK-MEL-2 melanoma) was 63.5 µM, the GI50 (SF-295 CNS) was 11.1 µM and the TGI (SF-295 CNS) was 52.4 µM. For the same compound, the GI50 (MDA-MB-435) was 17.5 µM, the TGI (MDA-MB-435) was 38.5 µM and the GI50 (HOP-62 NSCLC) was 5.49 µM. The TGI (HOP-62 NSCLC) was 88.2 µM, the GI50 (T-47D breast) was 11.7 µM and the TGI (T-47D breast) was 62 µM. For the same compound, the GI50 (SNB-75 CNS) was 13.4 µM, the TGI (SNB-75 CNS) was 57.6 µM and the GI50 (NCI-H23 lung) was 8.34 µM. The TGI (NCI-H23 lung) was 43 µM, the GI50 (K-562 leukemia) was 3.95 µM and the TGI (K-562 leukemia) was 43.1 µM. For the same compound, the GI50 (LOX IMVI melanoma) was 10.9 µM, the TGI (LOX IMVI melanoma) was 30.9 µM and the GI50 (TK-10 renal) was 47.3 µM. For the same compound, the TGI (TK-10 renal) was greater than 100 µM.
